Active and inactive are the calls of the source. No rule for the calls is given here.

The series concerns CCRIS mutagenicity, Ames/micronucleus/aberration tests. The series can be described thus: CCRIS mutagenicity studies.
Where [1] appears, read: Test System: AMES SALMONELLA TYPHIMURIUM, Strain/Indicator: TA100, Metabolic Activation: NONE, Method: DESICCATOR
The mark [2] stands for this setting: Test System: AMES SALMONELLA TYPHIMURIUM, Strain/Indicator: TA1535, Metabolic Activation: NONE, Method: STANDARD PLATE.
[3] abbreviates: Test System: AMES SALMONELLA TYPHIMURIUM, Strain/Indicator: TA98, Metabolic Activation: NONE, Method: STANDARD PLATE.
Where [4] appears, read: Test System: AMES SALMONELLA TYPHIMURIUM, Strain/Indicator: TA100, Metabolic Activation: NONE, Method: STANDARD PLATE.
Setting [5] is: Test System: AMES SALMONELLA TYPHIMURIUM, Strain/Indicator: TA98, Metabolic Activation: NONE, Method: PREINCUBATION
Setting [6] is: Test System: AMES SALMONELLA TYPHIMURIUM, Strain/Indicator: TA100, Metabolic Activation: NONE, Method: PREINCUBATION
Setting [7] is: Test System: AMES SALMONELLA TYPHIMURIUM, Strain/Indicator: TA102, Metabolic Activation: NONE, Method: PREINCUBATION
Setting [8] is: Test System: AMES SALMONELLA TYPHIMURIUM, Strain/Indicator: TA98, Metabolic Activation: RAT, LIVER, S-9, AROCLOR 1254, Method: STANDARD PLATE.

For `FC(F)(F)I`, the mutagenic call (Test System: AMES SALMONELLA TYPHIMURIUM, Strain/Indicator: TA98, Metabolic Activation: NONE, Method: DESICCATOR) is “active; positive”; the mutagenic call (Test System: AMES SALMONELLA TYPHIMURIUM, Strain/Indicator: TA98, Metabolic Activation: RAT, LIVER, S-9, AROCLOR 1254, Method: DESICCATOR) was “active; positive”; the mutagenic call under setting [1] was “active; positive”; the mutagenic call (Test System: AMES SALMONELLA TYPHIMURIUM, Strain/Indicator: TA100, Metabolic Activation: RAT, LIVER, S-9, AROCLOR 1254, Method: DESICCATOR) is “active; positive”; the mutagenic call (Test System: AMES SALMONELLA TYPHIMURIUM, Strain/Indicator: TA1535, Metabolic Activation: NONE, Method: DESICCATOR) was “active; positive”; the mutagenic call (Test System: AMES SALMONELLA TYPHIMURIUM, Strain/Indicator: TA1535, Metabolic Activation: RAT, LIVER, S-9, AROCLOR 1254, Method: DESICCATOR) is “active; positive”. Also, the mutagenic call by setting is: (Test System: AMES SALMONELLA TYPHIMURIUM, Strain/Indicator: TA1537, Metabolic Activation: NONE, Method: DESICCATOR) “active; positive”; (Test System: AMES SALMONELLA TYPHIMURIUM, Strain/Indicator: TA1537, Metabolic Activation: RAT, LIVER, S-9, AROCLOR 1254, Method: DESICCATOR) “active; positive”; (Test System: AMES SALMONELLA TYPHIMURIUM, Strain/Indicator: TA1538, Metabolic Activation: NONE, Method: DESICCATOR) “inactive; negative”; (Test System: AMES SALMONELLA TYPHIMURIUM, Strain/Indicator: TA1538, Metabolic Activation: RAT, LIVER, S-9, AROCLOR 1254, Method: DESICCATOR) “inactive; negative”; (Test System: MOUSE LYMPHOMA, Strain/Indicator: L5178Y (TK+/TK-), Metabolic Activation: NONE, Method: SUSPENSION/PLATE) “inactive; negative”; (Test System: MOUSE LYMPHOMA, Strain/Indicator: L5178Y (TK+/TK-), Metabolic Activation: RAT, LIVER, S-9, AROCLOR 1254, Method: SUSPENSION/PLATE) “inactive; negative”.
On to `COc1cccc(CN(C)N=O)c1`, for which the mutagenic call (Test System: AMES SALMONELLA TYPHIMURIUM, Strain/Indicator: TA1535, Metabolic Activation: HAMSTER, LIVER, S-9, AROCLOR 1254, Method: STANDARD PLATE) was “active; positive” and the mutagenic call under setting [2] was “inactive; negative”.
`Cc1c2ccccc2c(CBr)c2ccccc12`: the mutagenic call by setting is: under setting [3], “active; positive”; under setting [4], “inactive; negative”.
On to `Oc1cccc2c1[nH]c1ccccc12`, for which the mutagenic call (Test System: CHINESE HAMSTER OVARY, Strain/Indicator: CHO-K1-BH4 (HGPRT)/6-THIOGUANINE, Metabolic Activation: RAT, LIVER, S-9, AROCLOR (4%)) was “active; positive”.
Turning to `Nc1c2ccccc2nc2ccc(Cl)cc12`, for the setting “Test System: AMES SALMONELLA TYPHIMURIUM, Strain/Indicator: TA1537, Metabolic Activation: NONE, Method: PREINCUBATION”, the mutagenic call was “active; positive”.
`c1ccc2c(c1)ccc1nc3c4c(c5ccccc5c3cc12)O4`: the mutagenic call (Test System: AMES SALMONELLA TYPHIMURIUM, Strain/Indicator: TA100, Metabolic Activation: GUINEA PIG, LIVER, S-9, 3-METHYLCHOLANTHRENE, Method: STANDARD PLATE) was “active; positive”.
As for `CSCCCCC(=NOS(=O)(=O)O)S[C@@H]1O[C@H](CO)[C@@H](O)[C@H](O)[C@H]1O`, the mutagenic call (End Point: IN VITRO MICRONUCLEUS, Test System: HUMAN T-LYMPHOCYTES, Metabolic Activation: NONE) was “inactive; negative”.
Take `O=[Se](=O)(O)O`: the mutagenic call is, setting by setting: under setting [2], “active; positive”; (Test System: AMES SALMONELLA TYPHIMURIUM, Strain/Indicator: TA1535, Metabolic Activation: NONE, Method: STANDARD PLATE (MEDIUM WITH TRIMETAPHOSPHATE IONS)) “active; positive”; (Test System: UDS HUMAN FIBROBLASTS, Strain/Indicator: THY INCORP (NON-S-PHASE), Metabolic Activation: MOUSE, LIVER, S-9, Method: AUTORADIOGRAPHY) “active; positive”; (Test System: UDS HUMAN FIBROBLASTS, Strain/Indicator: THY INCORP (NON-S-PHASE), Metabolic Activation: NONE, Method: AUTORADIOGRAPHY) “active; positive”.
Regarding `Cc1[nH]ccc2c1[nH]c1cc(=O)ccc12`, the mutagenic call reads like this: (Test System: AMES SALMONELLA TYPHIMURIUM, Strain/Indicator: TA97, Metabolic Activation: NONE, Method: PREINCUBATION) “active; positive”; (Test System: AMES SALMONELLA TYPHIMURIUM, Strain/Indicator: TA97, Metabolic Activation: RAT, LIVER, S-9, AROCLOR 1254, Method: PREINCUBATION) “inactive; negative”; under setting [5], “inactive; negative”; (Test System: AMES SALMONELLA TYPHIMURIUM, Strain/Indicator: TA98, Metabolic Activation: RAT, LIVER, S-9, AROCLOR 1254, Method: PREINCUBATION) “inactive; negative”; under setting [6], “inactive; negative”; (Test System: AMES SALMONELLA TYPHIMURIUM, Strain/Indicator: TA100, Metabolic Activation: RAT, LIVER, S-9, AROCLOR 1254, Method: PREINCUBATION) “inactive; negative”. Moreover, the mutagenic call by setting is: under setting [7], “inactive; negative”; (Test System: AMES SALMONELLA TYPHIMURIUM, Strain/Indicator: TA102, Metabolic Activation: RAT, LIVER, S-9, AROCLOR 1254, Method: PREINCUBATION) “inactive; negative”.
Consider `CC(C)(C)NC(=O)C=Cc1ccc([N+](=O)[O-])o1`, for which the mutagenic call under setting [5] was “active; positive”.
`Oc1cc2c3ccccc3ccc2c2ccccc12`: the mutagenic call runs as follows: under setting [3], “inactive; negative”; under setting [8], “inactive; negative”; under setting [4], “inactive; negative”.
As to `N[C@@H](CCC(=O)N[C@@H](CSN=O)C(=O)NCC(=O)O)C(=O)O`, the mutagenic call was “active; positive” under setting [6]; “active; positive” (Test System: AMES SALMONELLA TYPHIMURIUM, Strain/Indicator: TA100, Metabolic Activation: RAT, LIVER, S-9, AROCLOR, Method: PREINCUBATION); “active; positive” under setting [7].
In the case of `ClCBr`, the mutagenic call (Test System: AMES SALMONELLA TYPHIMURIUM, Strain/Indicator: TA97, Metabolic Activation: NONE, Method: STANDARD PLATE) was “active; positive”; the mutagenic call (Test System: AMES SALMONELLA TYPHIMURIUM, Strain/Indicator: TA97, Metabolic Activation: RAT, LIVER, S-9, AROCLOR 1254, Method: STANDARD PLATE) was “active; positive”; the mutagenic call (Test System: AMES SALMONELLA TYPHIMURIUM, Strain/Indicator: TA98, Metabolic Activation: HAMSTER, LIVER, S-9, AROCLOR 1254 (30%), Method: PREINCUBATION) is “active; positive”; the mutagenic call under setting [5] is “active; positive”; the mutagenic call under setting [3] is “active; positive”; the mutagenic call (Test System: AMES SALMONELLA TYPHIMURIUM, Strain/Indicator: TA98, Metabolic Activation: RAT, LIVER, S-9, AROCLOR 1254 (30%), Method: PREINCUBATION) is “active; positive”. For the same molecule, the mutagenic call was “active; positive” under setting [8]; “active; positive” (Test System: AMES SALMONELLA TYPHIMURIUM, Strain/Indicator: TA100, Metabolic Activation: HAMSTER, LIVER, S-9, AROCLOR 1254 (30%), Method: PREINCUBATION); “active; positive” under setting [1]; “active; positive” under setting [6]; “active; positive” under setting [4]; “active; positive” (Test System: AMES SALMONELLA TYPHIMURIUM, Strain/Indicator: TA100, Metabolic Activation: RAT, LIVER, S-9, AROCLOR 1254 (30%), Method: PREINCUBATION). In addition, the mutagenic call (Test System: AMES SALMONELLA TYPHIMURIUM, Strain/Indicator: TA100, Metabolic Activation: RAT, LIVER, S-9, AROCLOR 1254, Method: STANDARD PLATE) is “active; positive”; the mutagenic call (Test System: AMES SALMONELLA TYPHIMURIUM, Strain/Indicator: TA104, Metabolic Activation: NONE, Method: STANDARD PLATE) was “active; positive”; the mutagenic call (Test System: AMES SALMONELLA TYPHIMURIUM, Strain/Indicator: TA104, Metabolic Activation: RAT, LIVER, S-9, AROCLOR 1254, Method: STANDARD PLATE) is “inactive; negative”.

Source of the values: PubChem BioAssay AID1259407 (Chemical Carcinogenesis Research Information System (CCRIS), 2018).
